Consider 22 compounds from US20100120884A1, “USE OF DITHIINE-TETRACARBOXIMIDES FOR CONTROLLING PHYTOPATHOGENIC FUNGI” (priority 2008, published 2010).

By chromatographic logP is commonly meant lipophilicity estimated from chromatographic retention. Lower therefore signals a more hydrophilic compound.

Tested on in the first series: not listed separately
Put plainly: physchem. Format: physicochemical. To be noted: pH 2.7. How it is done:
The determination of the logP values detailed in the tables and preparation examples hereinabove is carried out in accordance with EEC Directive 79/831 Annex V.A8 by means of HPLC (High Performance Liquid Chromatography) on a reversed-phase column (C 18). Temperature: 43° C.
The determination is carried out in the acidic range at pH 2.7, using 0.1% strength aqueous formic acid and acetonitrile (contains 0.1% formic acid) as eluents; linear gradient from 10% acetonitrile to 95% acetonitrile.
Calibration is carried out using unbranched alkan-2-ones (with 3 to 16 carbon atoms) with known logP values (determination of the logP values with reference to the retention times by linear interpolation between two successive alkanones).
With `O=c1c2sc3c(=O)n(C4(C(F)(F)F)CC4)c(=O)c3sc2c(=O)n1C1(C(F)(F)F)CC1` [Compound 7, 2,6-Bis[1-(trifluoromethyl)cyclopropyl]-1H,5H-[1,4]dithiino[2,3-c:5,6-c′]dipyrrole-1,3,5,7(2H,6H)-tetrone], the chromatographic logP was determined as 4.03.

In turn, `CCC(Cn1c(=O)c2sc3c(=O)n(CC(CC)OC(C)=O)c(=O)c3sc2c1=O)OC(C)=O` (centres unmarked) [Compound 35, (1,3,5,7-Tetraoxo-1,3,5,7-tetrahydro-2H,6H-[1,4]dithiino[2,3-c:5,6-c′]dipyrrole-2,6-diyl)dibutane-1,2-diyl diacetate] returned a chromatographic logP of 3.09.

`CC(C)(O)Cn1c(=O)c2sc3c(=O)n(CC(C)(C)O)c(=O)c3sc2c1=O` [Compound 34, 2,6-Bis(2-hydroxy-2-methylpropyl)-1H,5H-[1,4]dithiino[2,3-c:5,6-c′]dipyrrole-1,3,5,7(2H,6H)-tetrone] displayed a chromatographic logP of 3.65.

`O=c1c2sc3c(=O)n(CC(F)(F)F)c(=O)c3sc2c(=O)n1CC(F)(F)F` [Compound 6, 2,6-Bis(2,2,2-trifluoroethyl)-1H,5H-[1,4]dithiino[2,3-c:5,6-c′]dipyrrole-1,3,5,7(2H,6H)-tetrone] showed a chromatographic logP of 3.41. `CC(C)n1c(=O)c2sc3c(=O)n(C(C)C)c(=O)c3sc2c1=O` [Compound 4, 2,6-Di(propan-2-yl)-1H,5H-[1,4]dithiino[2,3-c:5,6-c′]dipyrrole-1,3,5,7(2H,6H)-tetrone] gave a chromatographic logP of 4.19.

As for `O=c1c2sc3c(=O)n(-c4cccc(C(F)(F)F)c4)c(=O)c3sc2c(=O)n1-c1cccc(C(F)(F)F)c1` [Compound 31, 2,6-Bis[3-(trifluoromethyl)phenyl]-1H,5H-[1,4]dithiino[2,3-c:5,6-c′]dipyrrole-1,3,5,7(2H,6H)-tetrone], the chromatographic logP was determined as 4.91. Same read-out and setting: for `CCC(O)Cn1c(=O)c2sc3c(=O)n(CC(O)CC)c(=O)c3sc2c1=O` (centres unmarked) [Compound 13, 2,6-Bis(2-hydroxybutyl)-1H,5H-[1,4]dithiino[2,3-c:5,6-c′]dipyrrole-1,3,5,7(2H,6H)-tetrone] the value was 2.27; for `O=c1[nH]c(=O)c2sc3c(=O)[nH]c(=O)c3sc12` [Compound 8, 1H,5H-[1,4]Dithiino[2,3-c:5,6-c′]dipyrrole-1,3,5,7(2H,6H)-tetrone], 1.13.

`CCOCCn1c(=O)c2sc3c(=O)n(CCOCC)c(=O)c3sc2c1=O` [Compound 16, 2,6-Bis(2-ethoxyethyl)-1H,5H-[1,4]dithiino[2,3-c:5,6-c′]dipyrrole-1,3,5,7(2H,6H)-tetrone]: the chromatographic logP stood at 3.24. Compound `O=C(O)CCCCn1c(=O)c2sc3c(=O)n(CCCCC(=O)O)c(=O)c3sc2c1=O` [Compound 29, 5,5′-(1,3,5,7-Tetraoxo-1,3,5,7-tetrahydro-2H,6H-[1,4]dithiino[2,3-c:5,6-c′]dipyrrole-2,6-diyl)dipentanoic acid] had a chromatographic logP of 2.02. The compound `CCn1c(=O)c2sc3c(=O)[nH]c(=O)c3sc2c1=O` [Compound 39, 2-Ethyl-1H,5H-[1,4]dithiino[2,3-c:5,6-c′]dipyrrole-1,3,5,7(2H,6H)-tetrone] gave a chromatographic logP of 2.13.

Compound `Cn1c(=O)c2sc3c(=O)n(C)c(=O)c3sc2c1=O` [Compound 1, 2,6-Dimethyl-1H,5H-[1,4]dithiino[2,3-c:5,6-c′]dipyrrole-1,3,5,7(2H,6H)-tetrone] showed a chromatographic logP of 2.32.

As to `COCCn1c(=O)c2sc3c(=O)n(CCOC)c(=O)c3sc2c1=O` [Compound 12, 2,6-Bis(2-methoxyethyl)-1H,5H-[1,4]dithiino[2,3-c:5,6-c′]dipyrrole-1,3,5,7(2H,6H)-tetrone], the chromatographic logP amounted to 2.55. On the same count and under the same terms, for `O=c1c2sc3c(=O)n(CCOc4ccccc4)c(=O)c3sc2c(=O)n1CCOc1ccccc1` [Compound 15, 2,6-Bis(2-phenoxyethyl)-1H,5H-[1,4]dithiino[2,3-c:5,6-c′]dipyrrole-1,3,5,7(2H,6H)-tetrone] the value was 3.86. Same read-out and setting: the figure for `CCOC(=O)C(CC)n1c(=O)c2sc3c(=O)n(C(CC)C(=O)O)c(=O)c3sc2c1=O` (centres unmarked) [Compound 41, 2-[2-(1-Ethoxy-1-oxobutan-2-yl)-1,3,5,7-tetraoxo-2,3,5,7-tetrahydro-1H,6H-[1,4]dithiino[2,3-c:5,6-c′]-dipyrrole-6-yl]butanoic acid] is 1.73; for `O=c1c2sc3c(=O)n(Cc4ccccc4)c(=O)c3sc2c(=O)n1Cc1ccccc1` [Compound 11, 2,6-Dibenzyl-1H,5H-[1,4]dithiino[2,3-c:5,6-c′]dipyrrole-1,3,5,7(2H,6H)-tetrone] it is 4.6.

As to `CCCCC(C(=O)OCC)n1c(=O)c2sc3c(=O)n(C(CCCC)C(=O)OCC)c(=O)c3sc2c1=O` (centres unmarked) [Compound 40, Diethyl 2,2′-(1,3,5,7-tetraoxo-1,3,5,7-tetrahydro-2H,6H-[1,4]dithiino[2,3-c:5,6-e]dipyrrole-2,6-diyl)di-hexanoate], the “log P” value was “log P = 4.66”.

The compound `CC(=O)OC(C)Cn1c(=O)c2sc3c(=O)n(CC(C)OC(C)=O)c(=O)c3sc2c1=O` (centres unmarked) [Compound 36, (1,3,5,7-Tetraoxo-1,3,5,7-tetrahydro-2H,6H-[1,4]dithiino[2,3-c:5,6-c′]dipyrrole-2,6-diyl)dipropane-1,2-diyl diacetate] had a chromatographic logP of 3.09.

As to `CC(C(=O)O)n1c(=O)c2sc3c(=O)n(C(C)C(=O)O)c(=O)c3sc2c1=O` (centres unmarked) [Compound 24, 2,2′-(1,3,5,7-Tetraoxo-1,3,5,7-tetrahydro-2H,6H-[1,4]dithiino[2,3-c:5,6-c′]dipyrrole-2,6-diyl)dipropanoic acid], the chromatographic logP came to 1.76.

The compound `CC(O)Cn1c(=O)c2sc3c(=O)n(CC(C)O)c(=O)c3sc2c1=O` (centres unmarked) [Compound 14, 2,6-Bis(2-hydroxypropyl)-1H,5H-[1,4]dithiino[2,3-c:5,6-c′]dipyrrole-1,3,5,7(2H,6H)-tetrone] displayed a chromatographic logP of 1.63. Same read-out and setting: the figure for `CC(CC(=O)O)n1c(=O)c2sc3c(=O)n(C(C)CC(=O)O)c(=O)c3sc2c1=O` (centres unmarked) [Compound 28, 3,3′-(1,3,5,7-Tetraoxo-1,3,5,7-tetrahydro-2H,6H-[1,4]dithiino[2,3-c:5,6-c′]dipyrrole-2,6-diyl)dibutanoic acid] is 1.99; for `O=C(O)C(Cc1ccccc1)n1c(=O)c2sc3c(=O)n(C(Cc4ccccc4)C(=O)O)c(=O)c3sc2c1=O` (centres unmarked) [Compound 32, 2,2′-(1,3,5,7-Tetraoxo-1,3,5,7-tetrahydro-2H,6H-[1,4]dithiino[2,3-c:5,6-c′]dipyrrole-2,6-diyl)bis(3-phenyl-propanoic acid)] it is 3.12.

Another series deals with Pyrenophora teres. As to the kind of experiment: Pyrenophora teres test (barley)/protective. The format is in vivo. To be noted: protective spray, 1000 ppm active substance, evaluation 8 days after inoculation. How it is done: Pyrenophora teres Test (Barley)/Protective
To prepare a suitable preparation of active substance, 1 part by weight of active substance is mixed with the stated amounts of solvent and emulsifier, and the concentrate is diluted with water to the desired concentration.
To test for protective activity, young plants are sprayed with the active substance preparation at the application rate detailed. After the spray coating has dried on, the plants are sprayed with a spore suspension of Pyrenophora teres. The plants remain in an incubation cabinet for 48 hours at 20° C. and 100% relative atmospheric humidity. The plants are placed in a greenhouse at a temperature of approximately 20° C. and a relative atmospheric humidity of approximately 80%.
Evaluation is carried out 8 days after the inoculation. 0% means an efficacy which corresponds to that of the control, while an efficacy of 100% means that no disease is observed.
Take `Cn1c(=O)c2sc3c(=O)n(C)c(=O)c3sc2c1=O` [Compound 1, 2,6-Dimethyl-1H,5H-[1,4]dithiino[2,3-c:5,6-c′]dipyrrole-1,3,5,7(2H,6H)-tetrone]: the efficacy was no less than 70%.
